Laboratory results taken from patent publication US20230104936A1, “TRPML MODULATORS” (Casma Therapeutics, Inc., priority 2019, published 2023).

Tested on: TFEB
Experiment: TFEB nuclear translocation assay, HeLa wt cells
Format: cell-based
Conditions: 2 hrs compound treatment, Table 1 does not say HeLa wt or TRPML1 KO
Procedure, shortened: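 Read-out is the ratio of TFEB immunofluorescence in the nucleus to that in a ring just outside it, measured by automated imaging. HeLa wt cells received compounds for 2 hrs at 37° C before fixation and staining; AC50 values come from this ratio.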

Compound | AC50 [nM]
CC(c1cccc(F)c1N1CCC(CN2CCC(F)(F)CC2)CC1)S(=O)(=O)c1ccc(S(=O)(=O)N(C)C)cc1 (stereo not drawn) [Compound A-803, 4-((1-(2-(4-((4,4-difluoropiperidin-1-yl)methyl)piperidin-1-yl)-3-fluorophenyl)ethyl)sulfonyl)-N,N-dimethylbenzenesulfonamide] | ≤ 2000
CC(c1cccc(F)c1N1CCC(CN2CCC(F)(F)CC2)CC1)S(=O)(=O)c1ccc(S(=O)(=O)N(C)C)cc1 (stereo not drawn) [Compound A-804, 4-((1-(2-(4-((4,4-difluoropiperidin-1-yl)methyl)piperidin-1-yl)-3-fluorophenyl)ethyl)sulfonyl)-N,N-dimethylbenzenesulfonamide] | ≤ 2000
CC(c1cccc(F)c1N1CCC(CN2CCC(F)(F)C2)CC1)S(=O)(=O)c1ccc(S(=O)(=O)N(C)C)cc1 (stereo not drawn) [Compound A-805, 4-((1-(2-(4-((3,3-difluoropyrrolidin-1-yl)methyl)piperidin-1-yl)-3-fluorophenyl)ethyl)sulfonyl)-N,N-dimethylbenzenesulfonamide] | ≤ 2000
CC(c1cccc(F)c1N1CCC(CN2CCC(F)(F)C2)CC1)S(=O)(=O)c1ccc(S(=O)(=O)N(C)C)cc1 (stereo not drawn) [Compound A-806, 4-((1-(2-(4-((3,3-difluoropyrrolidin-1-yl)methyl)piperidin-1-yl)-3-fluorophenyl)ethyl)sulfonyl)-N,N-dimethylbenzenesulfonamide] | ≤ 2000

Same assay, conditions: Homo sapiens, HeLa, 2 h, 2 hrs compound treatment, Table 1 does not say HeLa wt or TRPML1 KO

Compound | AC50 [nM]
CN(C)S(=O)(=O)c1ccc(S(=O)(=O)Nc2ccccc2N2CCC(C)(COC(F)(F)F)CC2)cc1 [Compound A-784, N1,N1-dimethyl-N4-(2-{4-methyl-4-[(trifluoromethoxy)methyl]piperidin-1-yl}phenyl)benzene-1,4-disulfonamide] | ≤ 2000
CN(C)S(=O)(=O)c1ccc(S(=O)(=O)Nc2cccc(F)c2N2CCC(CN3C[C@@H]4C[C@H]3CO4)CC2)cc1 [Compound A-785, N4-[3-fluoro-2-(4-{[(1S,4S)-2-oxa-5-azabicyclo[2.2.1]heptan-5-yl]methyl}piperidin-1-yl)phenyl]-N1,N1-dimethylbenzene-1,4-disulfonamide] | ≤ 2000
COC1(CN2C[C@@H](C)O[C@@H](C)C2)CCN(c2c(F)cccc2NS(=O)(=O)c2ccc(S(=O)(=O)N(C)C)cc2)CC1 [Compound A-786, N4-[2-(4-[(2R,6S)-2,6-dimethylmorpholin-4-yl]methyl-4-methoxypiperidin-1-yl)-3-fluorophenyl]-N1,N1-dimethylbenzene-1,4-disulfonamide] | ≤ 2000
C[C@@H]1CN(CC2CCN(c3c(NS(=O)(=O)c4ccc(S(=O)(=O)N(C)C)cc4)cccc3C(F)(F)F)CC2)C[C@H](C)O1 [Compound A-788, N4-[2-(4-{[(2R,6S)-2,6-dimethylmorpholin-4-yl]methyl}piperidin-1-yl)-3-(trifluoromethyl)phenyl]-N1,N1-dimethylbenzene-1,4-disulfonamide] | ≤ 2000
CN(C)S(=O)(=O)c1ccc(S(=O)(=O)Nc2cccc(F)c2N2CCC(CN3CCC(F)(F)CC3)CC2)cc1 [Compound A-789, N4-(2-{4-[(4,4-difluoropiperidin-1-yl)methyl]piperidin-1-yl}-3-fluorophenyl)-N1,N1-dimethylbenzene-1,4-disulfonamide] | ≤ 2000
CN(C)S(=O)(=O)c1ccc(S(=O)(=O)Nc2cccc(F)c2N2CCC(CN3C4CCC3COC4)CC2)cc1 [Compound A-790, N4-{3-fluoro-2-[4-({3-oxa-8-azabicyclo[3.2.1]octan-8-yl}methyl)piperidin-1-yl]phenyl}-N1,N1-dimethylbenzene-1,4-disulfonamide] | ≤ 2000
CN(C)S(=O)(=O)c1ccc(S(=O)(=O)Nc2cccc(F)c2N2CCC(CN3CC4CC(C3)O4)CC2)cc1 [Compound A-791, N4-{3-fluoro-2-[4-({6-oxa-3-azabicyclo[3.1.1]heptan-3-yl}methyl)piperidin-1-yl]phenyl}-N1,N1-dimethylbenzene-1,4-disulfonamide] | ≥ 10000
CN(C)S(=O)(=O)c1ccc(S(=O)(=O)Nc2cccc(F)c2N2CCC3(CCNC3=O)CC2)cc1 [Compound A-792, N4-(3-fluoro-2-{1-oxo-2,8-diazaspiro[4.5]decan-8-yl}phenyl)-N1,N1-dimethylbenzene-1,4-disulfonamide] | ≥ 10000
CN(C)S(=O)(=O)c1ccc(S(=O)(=O)Nc2ccc3ccnn3c2N2CCCCC2)cc1 [Compound A-793, N1,N1-dimethyl-N4-[7-(piperidin-1-yl)pyrazolo[1,5-a]pyridin-6-yl]benzene-1,4-disulfonamide] | 2010 to 8000
C[C@@H]1CN(CC2(F)CCN(c3c(F)cccc3NS(=O)(=O)c3ccc(S(=O)(=O)N(C)C)cc3)CC2)C[C@H](C)O1 [Compound A-794, N4-[2-(4-{[(2R,6S)-2,6-dimethylmorpholin-4-yl]methyl}-4-fluoropiperidin-1-yl)-3-fluorophenyl]-N1,N1-dimethylbenzene-1,4-disulfonamide] | ≤ 2000
CC(=O)NC1(C)CCN(c2c(F)cccc2NS(=O)(=O)c2ccc(S(=O)(=O)N(C)C)cc2)CC1 [Compound A-795, N-(1-{2-[4-(dimethylsulfamoyl)benzenesulfonamido]-6-fluorophenyl}-4-methylpiperidin-4-yl)acetamide] | 8010 to 9990
CN(C)S(=O)(=O)c1ccc(S(=O)(=O)Nc2cccc(F)c2N2CCC3(CCC(=O)N3)CC2)cc1 [Compound A-796, N4-(3-fluoro-2-{2-oxo-1,8-diazaspiro[4.5]decan-8-yl}phenyl)-N1,N1-dimethylbenzene-1,4-disulfonamide] | ≥ 10000
CN(C)S(=O)(=O)c1ccc(S(=O)(=O)Nc2ccccc2N2CCC(COC(F)(F)CF)CC2)cc1 [Compound A-797, N1,N1-dimethyl-N4-(2-{4-[(1,1,2-trifluoroethoxy)methyl]piperidin-1-yl}phenyl)benzene-1,4-disulfonamide] | ≤ 2000
CN(C)S(=O)(=O)c1ccc(S(=O)(=O)Nc2ccccc2N2CCC(F)(COC(F)(F)F)CC2)cc1 [Compound A-798, N4-(2-{4-fluoro-4-[(trifluoromethoxy)methyl]piperidin-1-yl}phenyl)-N1,N1-dimethylbenzene-1,4-disulfonamide] | ≤ 2000
CC(c1cccc(F)c1N1CCC(CN2C[C@@H](C)O[C@@H](C)C2)CC1)S(=O)(=O)c1ccc(S(=O)(=O)C(F)F)cc1 (stereo partly drawn) [Compound A-800, (2R,6S)-4-[(1-{2-[1-(4-difluoromethanesulfonylbenzenesulfonyl)ethyl]-6-fluorophenyl}piperidin-4-yl)methyl]-2,6-dimethylmorpholine] | ≤ 2000
CC(c1cccc(F)c1N1CCC(CN2CCC(F)(F)CC2)CC1)S(=O)(=O)c1ccc(S(=O)(=O)N(C)C)cc1 (stereo not drawn) [Compound A-801, 4-((1-(2-(4-((4,4-difluoropiperidin-1-yl)methyl)piperidin-1-yl)-3-fluorophenyl)ethyl)sulfonyl)-N,N-dimethylbenzenesulfonamide] | ≤ 2000
CC(c1cccc(F)c1N1CCC(CN2CCC(F)(F)C2)CC1)S(=O)(=O)c1ccc(S(=O)(=O)N(C)C)cc1 (stereo not drawn) [Compound A-802, 4-[1-(2-{4-[(3,3-difluoropyrrolidin-1-yl)methyl]piperidin-1-yl}-3-fluorophenyl)ethanesulfonyl]-N,N-dimethylbenzene-1-sulfonamide] | ≤ 2000
CNC(=O)c1cccc(NS(=O)(=O)c2ccc(S(=O)(=O)N(C)C)cc2)c1N1CCCCC1 [Compound A-809, 3-[4-(dimethylsulfamoyl)benzenesulfonamido]-N-methyl-2-(piperidin-1-yl)benzamide] | ≥ 10000
C#Cc1ccc(NS(=O)(=O)c2ccc(S(=O)(=O)N(C)C)cc2)c(N2CCCCC2)c1 [Compound A-812, N4-[4-ethynyl-2-(piperidin-1-yl)phenyl]-N1,N1-dimethylbenzene-1,4-disulfonamide] | ≤ 2000
COCC1(C)CCN(c2c(NS(=O)(=O)c3ccc(S(=O)(=O)N(C)C)cc3)ccc3nccn23)CC1 [Compound A-813, N4-{5-[4-(methoxymethyl)-4-methylpiperidin-1-yl]imidazo[1,2-a]pyridin-6-yl}-N1,N1-dimethylbenzene-1,4-disulfonamide] | ≥ 10000
C[C@@H]1CN(CC2CCN(c3c(F)cccc3NS(=O)(=O)c3ccc(C(F)(F)C4CC4)cc3)CC2)C[C@H](C)O1 [Compound A-814, 4-(cyclopropyldifluoromethyl)-N-[2-(4-{[(2R,6S)-2,6-dimethylmorpholin-4-yl]methyl}piperidin-1-yl)-3-fluorophenyl]benzene-1-sulfonamide] | ≤ 2000
CN(C)S(=O)(=O)c1ccc(S(=O)(=O)Nc2cccc(F)c2N2CCC3(CCN3)CC2)cc1 [Compound A-816, N4-(2-{1,7-diazaspiro[3.5]nonan-7-yl}-3-fluorophenyl)-N1,N1-dimethylbenzene-1,4-disulfonamide] | ≥ 10000
C[C@@H]1CC(OC2CCN(c3c(F)cccc3NS(=O)(=O)c3ccc(S(=O)(=O)N(C)C)cc3)CC2)C[C@H](C)O1 (stereo partly drawn) [Compound A-817, N4-[2-(4-{[(2R,6S)-2,6-dimethyloxan-4-yl]oxy}piperidin-1-yl)-3-fluorophenyl]-N1,N1-dimethylbenzene-1,4-disulfonamide] | ≤ 2000
C[C@@H]1CN(CC2CCN(c3c(F)cccc3NS(=O)(=O)c3ccc(S(=O)(=O)N(C)C)cc3)CC2)C[C@@H](C)O1 [Compound A-818, N4-[2-(4-{[(2R,6R)-2,6-dimethylmorpholin-4-yl]methyl}piperidin-1-yl)-3-fluorophenyl]-N1,N1-dimethylbenzene-1,4-disulfonamide] | ≤ 2000
O=S(=O)(c1ccc2c(c1)CCC2)N1Cc2cccc(N3CCOCC3)c2C1 [Compound A-819, 2-(2,3-dihydro-1H-indene-5-sulfonyl)-4-(morpholin-4-yl)-2,3-dihydro-1H-isoindole] | ≥ 10000
Cc1ccc(S(=O)(=O)N2Cc3cccc(N4CCOCC4)c3C2)cc1 [Compound A-820, 2-(4-methylbenzenesulfonyl)-4-(morpholin-4-yl)-2,3-dihydro-1H-isoindole] | ≥ 10000
